The values that follow come from publication PMC6609541, “Enterohepatic circulation of glucuronide metabolites of drugs in dog” (Pharmacology Research & Perspectives, 2019).

The nature of data set [1]: Hepatocyte intrinsic clearance with and without ABT (dog). The data set is classed as in vitro ADME. The settings on record: cryopreserved dog hepatocytes, dog hepatocytes, 0.3 µmol/L compound. As for the experimental part: (§1) The intrinsic clearance was determined in cryopreserved dog and human hepatocytes essentially as described previously.4 The assay incubation contained 0.3 µmol/L compound and hepatocytes at a concentration of 10^6 cells/mL, with and without 30 minutes pre‐incubation of 1 mmol/L ABT. Intrinsic clearance measurement was initiated by the addition of compound and the incubation quenched at 0.6, 15, 30, 60 and 90 minutes for DPTQ, and at 0.6, 15, 30, 60, 120 and 240 minutes by addition of acetonitrile with 0.1% formic acid. Samples were centrifuged at 3500 g for 10 minutes and the supernatant was analyzed to quantify parent compound loss and the intrinsic clearance values (μL/min/10^6 cells) were calculated using following equation for incubations with and without ABT. CLint=-kdep×incubation volume/10^6cells
(§2) In which the depletion rate constant (k dep) is the slope determined using linear regression from the log transformed percentage remaining on the y‐axis vs time on the x‐axis (min^− ^1). The fraction of metabolism (fm) by P450 was determined by the measurement of the percentage of inhibition of Clint by ABT.

In data set [2] the test system is cryopreserved dog hepatocytes. The data set is described as above. The data set is classed as in vitro ADME. The settings on record: for percentage of the metabolism not inhibited by ABT / % of inhibition by ABT: dog hepatocytes; for % of inhibition by ABT: inhibition of Clint by 1 mmol/L ABT (fm by P450); for Hepatic fm by UGT: dog, in hepatocytes. How it is done:
as §1, §2

Data set [3] can be described thus: Hepatocyte intrinsic clearance with and without ABT (human). The data set is classed as in vitro ADME. The settings on record: cryopreserved human hepatocytes, human hepatocytes, 0.3 µmol/L compound. As for the experimental part: as §1, §2
Data set [4] concerns cryopreserved human hepatocytes. The description is as above. The settings on record: for % of inhibition by ABT: human hepatocytes, inhibition of Clint by 1 mmol/L ABT (fm by P450); for Hepatic fm by UGT: human, in hepatocytes. The data set is classed as in vitro ADME. How it is done: as §1, §2
Data set [5] has as its system cryopreserved dog hepatocytes. Put plainly: Hepatocyte metabolite profile with and without ABT (dog). In kind it is in vitro ADME. As to conditions: 4 h, 2 μmol/L. How it is done:
Cryopreserved dog and human hepatocytes were obtained from BioreclamationIVT (Baltimore, MD). […] A stock solution of canagliflozin and DTPQ was added to medium to give a final incubation concentration of 2 μmol/L. The incubations including the media and cells were quenched after 4 hours with an equal volume of acetonitrile containing 200 ng/mL niflumic acid as internal standard. Samples were centrifuged at 3500 g for 10 minutes and the supernatant was analyzed by liquid chromatography coupled to a diode array UV detection and mass spectrometry system consisting of the Acquity ultra‐performance liquid chromatography column, Synapt G2‐S mass spectrometer, and an ultra‐performance liquid chromatography photodiode array detector (Waters, Milford, MA). The chromatographic separation of metabolites was achieved on a Waters 1.7‐μm Acquity BEH C18 (100 × 2.1 mm) column maintained at 60°C. The mobile phase consisted of solvent A (0.2% formic acid in water for DPTQ and 10 mmol/L ammonium acetate in water for canagliflozin) and solvent B (100% acetonitrile). The samples were eluted, at a flow rate of 0.5 mL/min with a gradient for 5 minutes. The LC/MS full scan data were processed by Metabolynx (Waters, Milford, MA) to identify metabolites. Product ion spectra were acquired to confirm the metabolites. The mass spectrometer was operated in positive ion mode with an electrospray ionization source. The parameters for the chamber were: capillary 1.0 kV, sample cone 50 V, source temperature 120°C, desolvation 500°C, and collision energy 25 V. The peak areas for parent, metabolite and internal standard were integrated to allow for comparison between conditions.

For data set [6], the system named is UGT (glucuronidation). Nature of the data set: Liver microsomal glucuronidation assay (dog). The data set is classed as in vitro ADME. The settings on record: liver microsomes, pH 7.5, dog, without BSA. How it is done: (§3) Intrinsic clearance of the compounds by glucuronidation was conducted in human and dog liver and kidney microsomes. Microsomes (0.5 mg/mL) with or without 2% bovine serum albumin (BSA), 100 mmol/L Tris‐HCl buffer, (pH 7.5), containing 5 mmol/L MgCl2 and 50 µg of alamethicin were mixed and placed on ice for 15 minutes. Canagliflozin or DPTQ (2 µmol/L final concentration) were added, and the mixture was pre‐incubated at 37°C for 3 minutes. A 0‐minute time point was obtained and the reaction initiated by the addition of UDPGA (5 mmol/L final concentration). Aliquots of the incubation (50 µL) were removed at various time points 5, 15, 30, 60 and 120 minutes, and added to the quench solution (1:1 acetonitrile:water). The zero minute time points were also quenched in the same manner. Substrate concentrations were then measured by LC/MS and the intrinsic clearance values (μL/min/mg protein) were calculated using following equation. CLint=-kdep×incubation volume/mg protein
(§4) In which the depletion rate constant (k dep) is the slope determined using linear regression from the log transformed % remaining on the y‐axis vs time on the x‐axis (min^− ^1). […] To determine the unbound intrinsic clearances the microsomal Clint values were divided by the respective microsomal fraction unbound values. The microsomal unbound fraction both with and without 2% BSA was determined as described previously.15

The test system of data set [7] is UGT (glucuronidation). Nature of the data set: Liver microsomal glucuronidation assay (human). The settings on record: liver microsomes, pH 7.5, with 2% BSA, Clint divided by microsomal unbound fraction, read-out: Clint,u, Liver microsomes. In kind it is in vitro ADME. How it is done: as §3, §4
For orientation: Liver microsomes are vesicles of endoplasmic reticulum, rich in cytochrome P450 enzymes.

Another data set relates to UGT. Nature of the data set: Liver microsomal glucuronidation assay (human). In kind it is in vitro ADME. As to conditions: human liver microsomes, pH 7.5, with 2% BSA. As for the experimental part:
as §3, §4

The target in the next data set is T1, P-gp (Homo sapiens, UniProt P08183).
T1 construct: host or cells: MDCKII
Nature of the data set: Bi‐directional transport across MDCKII cells expressing human P‐gp. The settings on record: human, MDCK-MDR1, with 2.5 μmol/L LSN335984, uninhibited ratio divided by inhibited ratio; NER >3.0 = P‐gp substrate; read-out: Net efflux ratio. In kind it is in vitro ADME. As for the experimental part:
MDCKII cells stably expressing human wild‐type P‐gp were obtained from the Netherlands Cancer Institute Amsterdam, The Netherlands). MDCK cells were maintained and the assay was conducted essentially as described previously.12, 13 Transport was measured in both directions across uninhibited and inhibited cell monolayers using a substrate concentration of 5 μmol/L diluted from a 10 mmol/L DMSO stock solution final DMSO concentration of 0.05%) and a single 60‐min time interval.

Data set [8] concerns human intestinal microsomes. Nature of the data set: Intestinal glucuronidation in human intestinal microsomes. The data set is classed as in vitro ADME. The settings on record: data not shown.
For data set [9] the following is noted: human, cited from earlier work; for EHC: enterohepatic circulation ref 11.
Data set [10] concerns human intestinal microsomes. On the set-up: method as in PMID 27862160. The settings on record: human intestinal microsomes ref 6; cited from earlier work.
Setting [11] is: with 1 mmol/L ABT, 30 minutes pre-incubation, 1 mmol/L ABT pre‐incubation 30 minutes, read-out: Clint with ABT.
Setting [12] is: 10^6 cells/mL, read-out: Clint without ABT.

Values joined by “and” are separate entries in the source; they are usually repeats but may differ in a detail not shown here. Equal entries are not always repeated. Where two headings read alike, the source gives them in different places.

T1 sequence (P08183 whole entry): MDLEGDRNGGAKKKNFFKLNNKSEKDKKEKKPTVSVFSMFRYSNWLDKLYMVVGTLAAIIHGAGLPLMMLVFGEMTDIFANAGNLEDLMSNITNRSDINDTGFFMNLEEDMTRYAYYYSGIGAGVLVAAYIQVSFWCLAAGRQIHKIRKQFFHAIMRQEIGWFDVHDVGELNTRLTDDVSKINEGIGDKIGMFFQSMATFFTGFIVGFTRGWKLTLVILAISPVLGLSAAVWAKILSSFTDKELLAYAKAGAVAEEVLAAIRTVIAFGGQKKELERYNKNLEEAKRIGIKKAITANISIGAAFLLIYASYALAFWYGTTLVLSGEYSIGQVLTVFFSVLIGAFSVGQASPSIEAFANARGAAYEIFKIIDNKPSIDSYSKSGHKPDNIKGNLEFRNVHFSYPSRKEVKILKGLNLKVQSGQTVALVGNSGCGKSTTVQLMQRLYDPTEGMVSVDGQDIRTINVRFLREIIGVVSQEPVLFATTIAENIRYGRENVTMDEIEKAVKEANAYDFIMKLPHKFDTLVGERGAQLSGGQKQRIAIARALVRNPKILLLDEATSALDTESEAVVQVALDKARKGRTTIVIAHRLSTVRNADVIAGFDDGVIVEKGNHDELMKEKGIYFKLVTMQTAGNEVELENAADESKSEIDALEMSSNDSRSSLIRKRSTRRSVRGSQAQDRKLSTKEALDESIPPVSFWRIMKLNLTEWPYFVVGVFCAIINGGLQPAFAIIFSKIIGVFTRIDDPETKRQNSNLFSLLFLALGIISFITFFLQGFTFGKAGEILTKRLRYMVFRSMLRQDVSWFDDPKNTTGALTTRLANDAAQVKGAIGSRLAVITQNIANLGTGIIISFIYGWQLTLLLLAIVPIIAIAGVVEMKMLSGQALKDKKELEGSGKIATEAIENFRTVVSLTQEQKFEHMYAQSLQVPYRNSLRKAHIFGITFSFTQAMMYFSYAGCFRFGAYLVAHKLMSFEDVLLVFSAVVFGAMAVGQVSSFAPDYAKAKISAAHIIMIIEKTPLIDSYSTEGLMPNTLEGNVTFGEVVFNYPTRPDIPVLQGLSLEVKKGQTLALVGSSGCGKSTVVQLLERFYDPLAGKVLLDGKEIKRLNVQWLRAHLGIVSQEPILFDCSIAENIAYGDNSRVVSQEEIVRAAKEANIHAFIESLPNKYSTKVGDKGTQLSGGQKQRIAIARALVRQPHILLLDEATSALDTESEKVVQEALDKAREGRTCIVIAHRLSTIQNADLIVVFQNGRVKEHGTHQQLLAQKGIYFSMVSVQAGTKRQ

On to `C[C@H]1c2cccc(CC(C)(C)O)c2C[C@H](CO)N1C(=O)Cc1c(Cl)cccc1Cl` [DPTQ, 2‐(2,6‐dichlorophenyl)‐1‐((1S,3R)‐5‐(2‐hydroxy‐2‐methylpropyl)‐3‐(hydroxymethyl)‐1‐methyl‐3,4‐dihydroisoquinolin‐2(1H)‐yl)ethan‐1‐one], for which the hepatocyte CLint at 0.3 µmol/L in data set [1] (setting [11]) is 18.3 ± 5.9 µL/min/1e6 cells; in data set [1] (setting [12]) it was 38.6 ± 8.5 µL/min/1e6 cells; in data set [3] (setting [11]), 5.5 ± 2.2 µL/min/1e6 cells; in [3] (setting [12]), 5.8 ± 2 µL/min/1e6 cells. Further, the “percentage of the metabolism not inhibited by ABT” value in [2] is 53.5%. Besides, the “% of inhibition by ABT” value is 46.5% and 46.5 ± 6.6% in data set [2]; 7.8 ± 9.6% in data set [4]. The figures for the “Hepatic fm by UGT” value in [2] and in [4] were “Moderate (moderate 30%‐70%)” and “High (high 70%‐100% in hepatocytes)”, respectively. Also, in [5], the “Peak area (+ABT)” value was 244. Also, in [5], the “Peak area (‐ABT)” value turned out to be 33. Further, the microsomal CLint at 2 µmol/L in the data set on UGT (glucuronidation) [6] (2 µmol/L, 0.5 mg/mL, UDPGA, ND = Clint < 1.8, read-out: Clint, Liver microsomes) is 99 µL/min/mg; in the data set with UGT (glucuronidation) [6] (Clint divided by microsomal unbound fraction, read-out: Clint,u, Liver microsomes) it was 123 µL/min/mg; with UGT (glucuronidation) [7], 47.1 µL/min/mg; in the data set on UGT it was 5.6 µL/min/mg. In addition, the efflux ratio at 60 min, 5 μmol/L at P-gp was 1.3. The intestinal glucuronidation entry in data set [8] is listed as “negligible”.
As for `Cc1ccc([C@@H]2O[C@H](CO)[C@@H](O)[C@H](O)[C@H]2O)cc1Cc1ccc(-c2ccc(F)cc2)s1` [Canagliflozin], the hepatocyte CLint at 0.3 µmol/L in data set [1] (setting [11]) came out at 6 ± 3.3 µL/min/1e6 cells; in data set [1] (setting [12]), 6.5 ± 3.6 µL/min/1e6 cells; in data set [3] (setting [11]) it was 10.1 ± 1.4 µL/min/1e6 cells; in data set [3] (setting [12]), 12.7 ± 2 µL/min/1e6 cells. In data set [2], the “percentage of the metabolism not inhibited by ABT” value came out at 87.3%. Also, the figures for the “% of inhibition by ABT” value in [2], in data set [2] (listed as canagliflozin) and in [4] were 12.7 ± 14.1%, 12.7% and 20.1 ± 5.1%, respectively. Besides, the entries for the “Hepatic fm by UGT” value in data set [2] and in data set [4] were “Low (Low 0%‐30%)” and “High (high 70%‐100% in hepatocytes)”, respectively. Besides, the “Peak area (+ABT)” value in [5] is reported as 8448. In addition, the “Peak area (‐ABT)” value in data set [5] was found to be 7808. The microsomal CLint at 2 µmol/L in the data set with UGT (glucuronidation) [7] worked out at 422 µL/min/mg; in the data set with UGT, 7.6 µL/min/mg. Besides, the EHC result in data set [9] is reported as “No”; in data set [9] (listed as canagliflozin), “negligible”. Moreover, the “Urinary excretion % of glucuronide” value in data set [9] (From human 14C study ref 5) is “Moderate ^d (moderate 30%‐70%)”. Besides, the intestinal glucuronidation result in [10] is given as “negligible”.
